Data reported in patent US10662210B2, “Compositions and methods comprising osmium for the treatment of cancers” (Massachusetts Institute of Technology, priority 2014, dated 2020).
Like-named read-outs stand apart in the source and are kept apart here.

Key:
[1] = Water-octanol partition coefficient (log P), shake-flask method with GF-AAS; assay type: physicochemical; conditions: room temperature, 50 μM
Experimental: Those of ordinary skill in the art would be knowledgeable of methods of determining the water-octanol partition coefficient of compounds. For example, the log P of a compound may be obtained using the shake-flask method and graphite furnace atomic absorption spectroscopy (GF-AAS). Briefly, in the shake-flask method, octanol is pre-saturated with water by overnight incubation with shaking of a biphasic mixture of the two at room temperature. A portion of 0.5 mL water containing 50 μM of the given compound is incubated with the pre-saturated octanol (0.5 mL) in a 1.5 mL tube. The tube is shaken at room temperature for 3 hours. The two phases are separated by centrifugation and the osmium content (concentration) in each phase is determined by GFAAS. The log P is then calculated using the formula below: log P=log 10[(concentration of osmium in the octanol layer)/(concentration of osmium in the water layer)].
The log P values were obtained using the shake-flask method and graphite furnace atomic absorption spectroscopy (GF-AAS). Octanol used in this experiment was pre-saturated with water by overnight incubation with shaking of a biphasic mixture of the two at room temperature. A portion of 0.5 mL water containing 50 μM of the given compound was incubated with the pre-saturated octanol (0.5 mL) in a 1.5 mL tube. The tube was shaken at room temperature for 3 h. The two phases were separated by centrifugation and the osmium content (concentration) in each phase was determined by GFAAS. All the experiments were carried out in triplicate. The log P was then calculated using the formula below: Log P=log 10[(conc. of osmium in the octanol layer)/(conc. of osmium in the water layer)].

[2] = test system: A2780 (ovarian); assay: Cytotoxicity MTT assay; assay type: cell-based, human; conditions: for IC50: MTT, 72 h
Experimental: (§1) The anti-proliferative properties of 1-4 against a panel of human cancer cell lines were assessed by the MTT [3-(4,5-dimethylthiazol-2-yl)-2,5-diphenyltetrazolium bromide] assay. Cisplatin was included as a control. The IC50 values, concentrations required to induce 50% viability, were derived from dose-response curves and are summarized in Table 1.
(§2) A549 lung adenocarcinoma, HeLa cervical cancer, and MRC5 normal human fetal lung fibroblast cell lines were maintained in Dulbecco's Modified Eagle's Medium (DMEM-low glucose) supplemented with 10% fetal bovine serum and 1% penicillin/streptomycin. The cisplatin-sensitive A2780 ovarian cancer and the cisplatin-resistant A2780/CP70 ovarian cancer cell lines were cultured in RPMI (glutamine free) media supplemented with 10% fetal bovine serum and 1% penicillin/streptomycin. All cells were grown at 310 K in a humidified atmosphere containing 5% CO2.
(§3) The colorimetric MTT assay was used to determine the toxicity of the osmium complexes and cisplatin. Cells (2×10^3) were seeded in each well of a 96-well plate. After incubating the cells overnight, various concentrations of test compound (0.3-100 μM) were added and incubated for 72 h (total volume 200 μL). The test compounds were prepared as 10 mM solutions in DMSO and diluted using media. The final concentration of DMSO in each well was 0.5% and this amount was present in the untreated control as well. Cisplatin was prepared as a 5 mM solution in PBS and diluted further using media. After 72 h, the medium was removed, 200 μL of a 0.4 mg/mL solution of MTT in DMEM or RPMI was added, and the plate was incubated for an additional 1-2 h. The DMEM/MTT or RPMI/MTT mixture was aspirated and 200 μL of DMSO was added to dissolve the resulting purple formazan crystals. The absorbance of the solution wells was read at 550 nm. Absorbance values were normalized to DMSO-containing control wells and plotted as concentration of test compound versus % cell viability. IC50 values were interpolated from the resulting dose dependent curves. The reported IC50 values are the average from at least three independent experiments, each of which consisted of six replicates per concentration level.

[3] = test system: A2780/CP70 (ovarian); assay: Cytotoxicity MTT assay; assay type: cell-based, human; conditions: 72 h, cisplatin-resistant
Experimental: as §1, §2, §3

[4] = test system: A549 (lung); assay: Cytotoxicity MTT assay; assay type: cell-based, human; conditions: 72 h
Experimental: as §1, §2, §3

[5] = test system: MRC-5 (lung normal); assay: Cytotoxicity MTT assay; assay type: cell-based, human; conditions: 72 h
Experimental: as §1, §2, §3

[6] = test system: HeLa (cervical); assay: Cytotoxicity MTT assay; assay type: cell-based, human; conditions: 72 h
Experimental: as §1, §2, §3

[7] = test system: A2780 cells; assay: Cytotoxicity MTT assay with pathway and cell death inhibitors; assay type: cell-based, human; conditions: for effect of chloroquine and IM-54 on potency: inhibitors 10 μM; for effect of p53 inhibitors on toxicity: pifithrin-α and pifithrin-μ, both 10 μM; for IC50: 72 hours incubation
Experimental: This finding led to the investigation of the possibility that 4 may induce endoplasmic reticulum (ER) stress. Co-administration of 4 and salubrinal (10 μM), a known ER stress inhibitor, reduced the cytotoxicity of 4 in A2780 cells. […] To further validate the ER as the main target for 4, the expression of proteins related to the unfolded protein response (UPR) was monitored. […] ER membrane expansion is widely associated with ER stress. With this fact in mind the ER size of A2780 cells upon incubation with 4 were examined using fluorescence microscopy. Relative to untreated controls (FIG. 3B), cells exposed to 4 (10 μM) for 4 h had 25.1% larger ER coverage (FIG. 3C). The ER size relative to the whole cell of the untreated controls was about 30% and the ER size relative to the whole cell of the treated samples was about 55%.
Having established the intracellular targets of 2 and 4, the role of p53, a cell cycle and apoptosis regulator, in the cellular responses evoked was investigated. […] Therefore, p53 played a fundamental role in coordinating the cellular response to 2-induced DNA damage. […] (FIG. 13). […] To relate p53 to potency, cytotoxicity studies were conducted in the presence of p53 inhibitors pifithrin-α and pifithrin-μ. (both 10 μM). […] The IC50 values of compound 2 in the absence and presence of p53 inhibitor pifithrin-μ after 72 hours incubation was about 2 μM and about 30 μM, respectively.
as §3
For specific pathway and cell death inhibitor assays, inhibitors of p53 (pifithrin-α, 10 μM and pifithrin-μ, 10 μM), ER stress (salubrinal, 10 μM), necrosis (IM-54, 10 μM), and autophagocytosis (chloroquine, 10 μM) were added to cells and incubated for 0-1 h prior to treatment with the test compounds.

[8] = test system: Eμ-Mycp19arf−/− lymphoma cells; assay: RNAi signatures, GFP competition assay; conditions: for shChk2 log 2(RI) value / shp53 log 2(RI) value: LD80-90 concentration; for RNAi signature classification against reference set: probabilistic K-nearest neighbors
Text: This RNAi-based methodology relied on a fluorescence competition assay involving lymphoma cells that were partially infected with one of eight distinct short hairpin RNAs (shRNAs). shRNA-bearing cells will either enrich or deplete relative to the uninfected population based on drug survival advantage or disadvantage conferred by a given shRNA. […] The signature of a novel compound was compared to those of a reference set of drugs using a probabilistic K-nearest neighbors algorithm to determine whether it belonged to a class in the reference set or a new category that was not represented in the reference set.
Compounds were dosed to achieve an LD80-90 in Eμ-Myc^p19arf−/− cells by propidium iodide exclusion as determined by FACS after a 48 h incubation. GFP enrichment/depletion was then determined by FACS at 72 h. […] All FACS was conducted using a FACScan (BD Biosciences).
Eμ-Myc^p19arf−/− lymphoma or p185+ BCR-Abl^p19arf−/− leukemia cells were infected with GFP-tagged shRNAs such that 15-25% of the population were GFP positive. An eighth of a million cells in 250 μL B-cell media (BCM) were then seeded into 24-well plates. For wells that would remain untreated as a control, only 1/16th of a million cells were seeded. Next, 250 μL of media containing the active agent was added to the cells. After 24 h, 300 μL of cells from untreated wells are removed and replaced by 300 μL fresh BCM. All wells then received 500 μL BCM before being placed by in the incubator for another 24 h. At 48 h, cells transduced with the control vector, MLS, were checked for viability via FACS on a FACScan (BD Biosciences) using propidium iodide as a live/dead marker. Untreated wells then had 700 μL of cells removed and replaced with 700 μL fresh media followed by a further 1 mL of fresh media. […] Finally, at 72 h, all wells for which an LD80-90 was achieved, as well as the untreated samples, were analyzed via FACS to determine GFP % enrichment.

Row | Structure (SMILES) | log P (water-octanol coefficient) [1] | IC50 [2] [µM] | IC50 [3] [µM] | IC50 [4] [µM] | IC50 [5] [µM] | IC50 [6] [µM] | effect of chloroquine and IM-54 on potency [7] | effect of p53 inhibitors on toxicity [7] | IC50 increase on co-administration of salubrinal compared to compound alone ([7]; salubrinal 10 μM) [fold] | shChk2 log 2(RI) value [8] | shp53 log 2(RI) value [8] | RNAi signature classification against reference set [8] | higher potency for A2780 than for normal lung fibroblast MRC5 ([2]; A2780 vs MRC5) [fold] | IC50 ([7]; read-out: IC50 in the absence of pifithrin-α) [µM] | IC50 ([7]; read-out: IC50 in the absence of pifithrin-μ) [µM] | IC50 ([7]; pifithrin-α 10 μM, read-out: IC50 in the presence of pifithrin-α) [µM] | IC50 ([7]; pifithrin-μ 10 μM, read-out: IC50 in the presence of pifithrin-μ) [µM] | effect of salubrinal on toxicity ([7]; salubrinal 10 μM)
1 | [N]#[Os]1([Cl])([Cl])([Cl])[N]2C=CC(c3ccccc3)=c3ccc4c(c32)[N]1C=CC=4c1ccccc1 [Complex 4, OsN(4,7-diphenyl-1,10-phenanthroline)Cl3] | 1.84 | 3.36 ± 0.09 | 3.4 ± 0.28 | 1.97 ± 0.02 | 8.45 ± 1.21 | 2.86 ± 0.51 | little effect | unaffected | 13.3 | 0.73 | 1.32 | represented novel mechanisms of drug action | – | – | – | – | – | –
2 | [N]#[Os]1([Cl])([Cl])([Cl])[N]2C=CC=c3ccc4c(c32)[N]1C=CC=4 [Complex 2, OsN(1,10-phenanthroline)Cl3] | 1.26 | 1.99 ± 0.23 | 2.96 ± 0.23 | 7.86 ± 1.41 | 16.6 ± 3.61 | 6.95 ± 0.53 | little effect | increased significantly | – | 2.6 | 2.7 | represented novel mechanisms of drug action | 8 | ~4.5 | ~2 | ~2 | ~30 | limited effect
